The experiment concerns NF-kB reporter activity. Briefly: NF-kB luciferase reporter assay (TNFa-stimulated NF-kB Reporter-HEK293 cells). The note with it: for Percent Inhibition at 10 uM / IC50 / inhibition at 10 µM: NF-kB Reporter-HEK293 cells; for Percent Inhibition at 10 uM / inhibition at 10 µM: compound at 10 uM; for inhibition at 10 µM: read-out: Percent Inhibition at 10 uM. It is filed as cell-based, human. Here is the method:
NF-kB Reporter-HEK293 cell line (BPS Bioscience #60650); MEM medium (Hyclone #SH30024.01); Fetal bovine serum (Life Technologies #10082147); Non-essential amino acid (Corning 25-025-C1); Na-pyruvate (Hyclone #SH30239.01); Pen-strep (Hyclone #SV30010); Hygromycin B (Invitrogen/Thermo-Fisher #10687010); IKK-16 dihydrochloride—NF-kB inhibitor (Sigma SML1138); TNFa (R&D Systems 210-TA); ONE-Step luciferase assay system (BPS Bioscience #60690).
Cell culture. Cells were cultured in MEM medium with 10% FBS, 1% non-essential amino acid, 1 mM Na-pyruvate, 1% Pen-strep, and 50 μg/mL Hygromycin B.
To perform the NF-kB luciferase reporter assay, NF-kB Reporter—HEK293 cells were seeded at 30,000 cells per well into white clear-bottom 96-well microplate in 60 μL of assay medium (growth medium without Hygromycin B). Cells were incubated at 37° C. and 5% CO2 for 5 hours to allow them attach. A serial dilution of compounds was prepared in assay medium without Hygromycin B. Thirty μL of diluted compounds was added to the treatment wells at the end of the day. Thirty μL of assay medium with the same concentration of DMSO without compound was added to the control wells. One hundred μL of assay medium with DMSO was added to cell-free control wells for determining background luminescence. Cells were incubated at 37° C. and 5% CO2 overnight.
The next day ten μL of diluted human TNFa in assay medium was added to wells (final [TNFa]=10 ng/mL). Ten μL of assay medium was added to unstimulated control wells. Cells were incubated at 37° C. and 5% CO2 for 5-6 hours. After treatment, cells were lysed and the luciferase assay was performed using ONE-Step luciferase assay system: add 100 μL of One-Step Luciferase reagent per well and rock at room temperature for ˜30 minutes. Luminescence was measured using a luminometer (BioTek Synergy™ 2 microplate reader).
(In a reporter assay the amount or activity of a reporter protein is the signal.)

The mark [1] stands for this setting: TNFa 10 ng/mL, curve fit with top and bottom locked, read-out: IC50 Lock top and bottom of curve.
The mark [2] stands for this setting: overnight compound, TNFa 10 ng/mL 5-6 hours, luciferase, read-out: IC50 against NF-kB reporter activity.
The mark [3] stands for this setting: Homo sapiens, TNFa 10 ng/mL, curve fit with top and bottom locked, read-out: IC50 Lock top and bottom of curve.
Setting [4] is: Homo sapiens, overnight compound, TNFa 10 ng/mL 5-6 hours, luciferase, read-out: IC50 against NF-kB reporter activity.

Molecules are shown by their SMILES. Counter-ions that a name gives are not always drawn. Like-named read-outs stand apart in the source and are kept apart here.

As a reminder, the IC50 is the concentration that inhibits the measured activity by half. `O=C(c1ccc(Nc2nccc(-c3cc4ccccc4s3)n2)cc1)N1CCC(N2CCCC2)CC1` [IKK-16 dihydrochloride]: the “Percent Inhibition at 10 uM” value (TNFa 10 ng/mL) is recorded as 88%. The IC50 under setting [1] is 260 nM and the IC50 under setting [2] was found to be 330 nM.
On to `Cc1cnc(Nc2ccc(OCCN3CCCC3)cc2)nc1Nc1cccc(S(=O)(=O)NC(C)(C)C)c1` [Fedratinib (TG101348)], for which the “Percent Inhibition at 10 uM” value (TNFa 10 ng/mL) came to 99%. Moreover, the IC50 by setting is: under setting [1], 2900 nM; under setting [2], 6100 nM.
One may read the inhibition as the relative decrease from the control value, in per cent. Take `N#CCNC(=O)c1ccc(-c2ccnc(Nc3ccc(N4CCOCC4)cc3)n2)cc1` [MMB/Momelotinib, N-(cyanomethyl)-4-(2-(4-morpholinophenylamino)pyrimidin-4-yl)benzamide]: where the note is “Homo sapiens, TNFa 10 ng/mL”, the inhibition at 10 µM is 100%. Besides, the IC50 runs as follows: under setting [3], 430 nM; under setting [4], 470 nM. Further, the “downregulation of NF-κB signaling in a luciferase assay” value (cellular data, compounds ran in parallel) is recorded as “downregulates NF-κB signaling”.
On to `Cc1noc2c1-c1ccccc1C(c1ccc(Cl)cc1)=N[C@H]2CC(N)=O` [CPI-0610], for which, for the setting “Homo sapiens, TNFa 10 ng/mL”, the inhibition at 10 µM is 78%. For the same compound, the 50% inhibitory concentration (IC50) under setting [3] was 540 nM and the IC50 under setting [4] is 270 nM.
Regarding `N#CC[C@H](C1CCCC1)n1cc(-c2ncnc3[nH]ccc23)cn1` [Ruxolitinib (INCB018424)], the inhibition at 10 µM (Homo sapiens, TNFa 10 ng/mL) was -11%.
For the compound `C1=C/COCc2cc(ccc2OCCN2CCCC2)Nc2nccc(n2)-c2cccc(c2)COC/1` [Pacritinib (SB1518)], for the setting “Homo sapiens, TNFa 10 ng/mL”, the inhibition at 10 µM is 100%. Also, the IC50 reads like this: under setting [3], 1200 nM; under setting [4], 1400 nM.

The values above are taken from patent publication US20240325402A1, “MOMELOTINIB COMBINATION THERAPY” (GlaxoSmithKline LLC, priority 2021, published 2024).
